These results are taken from US20060106032A1, “Synthesis of N2 - (substituted arylmethyl) -3- (substituted phenyl) indazoles as novel anti-angiogenic agents” (YUNG SHIN PHARM. IND. CO., LTD., priority 2004, published 2006).

Broadly, the melting point is the temperature, or range, at which the solid turns liquid.

Data set [1] concerns Human umbilical vein endothelial cells (HUVECs). The experiment in a line: [3H]thymidine incorporation assay: VEGF-induced cell proliferation (DNA synthesis) of HUVECs. Type of data set: cell-based. The following applies: VEGF 10 ng/mL. On the procedure: Human umbilical vein endothelial cells were incubated in the absence (basal and control) or presence of tested sample (YD-3, 10, 15, 17, 21, 25, 26) with 30 μM, and then vascular endothelial growth factor (VEGF) was added (except for basal) to induce DNA synthesis, which was detected using [^3H] thymidine incorporation assay.
Human umbilical vein endothelial cells were incubated in the absence (basal and control) or presence of tested sample (YD-3, 10, 15, 17, 21, 25, 26) with 10 μM, and then vascular endothelial growth factor (VEGF) was added (except for basal) to inducd DNA synthesis, which was detected using [^3H] thymidine incorporation assay. Means±S.E. (n=5) were presented.
Human umbilical vein endothelial cells were incubated in the absence (basal and control) or presence of tested sample (YD-3, 10, 15, 17, 21, 25, 26) with 1 μM, and then vascular endothelial growth factor (VEGF) was added (except for basal) to inducd DNA synthesis, which was detected using [^3H] thymidine incorporation assay. Means±S.E. (n=5) were presented.
(§1) Human umbilical vein endothelial cells (HUVECS) were isolated according to the protocols from Jaffe et al. and obtained from human umbilical cord veins with collagenase and cultured in 75 cm^2 plastic flasks in M199 containing 20% FBS, 15 μg/mL endothelial cell growth supplements (ECGs). Confirmation of their identity as endothelial cells was provided by detection of CD31 (PECAM-1), assessed by immunostaining. Experiments were conducted on HUVECs that had used in passage 2 to 5.
Confluent HUVECs were trypsinized, suspended in DMEM supplemented with 20% FBS, and seeded at 1.0×10^4 cells per well into 96-well plates. After 24 h, the cells were washed twice with PBS and starved with 2% FBS-M199 medium for 24 h. The cells were incubated with or without indicated reagents and growth factors (VEGF; 10 ng/mL) for 24 h and harvested. Before the harvest, cells were incubated with [^3H]thymidine (2 μCi/mL) for 4 h, harvested with Filter-Mate (Packard), and incorporated radioactivity was determined.
The effect of tested compounds on VEGF-induced cell proliferation of HUVECs was assessed with the [^3H]thymidine incorporation assay, and the results were illustrated in FIG. 5-FIG. 7.

Data set [2] has the same test system. The experiment in a line: VEGF-induced tube formation of HUVECs on Matrigel. The format is cell-based. The following applies: FIG. 8; for blockage of VEGF-induced tube formation of HUVECs: Matrigel-coated chamberslide. On the procedure:
FIG. 8 show photographs of the results of in vitro assay (inhibition of tube formation). Human umbilical vein endothelial cells were cultured onto chamberslide, which was precoated with Matrigel (10 mg/ml). Cells were treated without (basal and control) or with tested sample (YD-3, 10, 15, 17, 21, 25, 26) and then vascular endothelial growth factor (VEGF) was added to induce tube formation. All photographs were taken at 100×magnification.
as §1

The test system of another data set is angiogenesis. The experiment in a line: Evaluation for anti-angiogenic activities (overall summary). The note with it: summary statement. On the procedure:
3-(4-Methylphenyl)-1H-indazole (10) and N^2-(substituted benzyl)-3-(4-methylphenyl)indazoles (15, 17, 21, 25, 26) were evaluated for anti-angiogenic activities.
In this study, 3-(4-methylphenyl)-1H-indazole (10) and five of the above mentioned N^2-regioisomers, namely, compounds 15, 17, 21, 25 and 26 were selected for evaluating their effects on VEGF-induced cell proliferation, on VEGF-induced tube formation of HUVECs in vitro, and on neovascular formation in vivo.

Data set [3] concerns VEGF-induced angiogenesis in Matrigel plug. The experiment in a line: In vivo Matrigel plug assay (neovascular formation, hemoglobin concentration). The following applies: nude mice, FIG. 9; for anti-angiogenic activity in Matrigel plug assay (hemoglobin concentration): 150 ng/ml VEGF plug, oral, seven-day administration. On the procedure:
Nude mice were subcutaneously injected with a Matrigel plug containing 150 ng/ml vascular endothelial growth factor (VEGF). Vehicle or tested sample (YD-3, 10, 15, 17, 21, 25, 26) was orally administered into the mice. After a seven-day administration, the animals were euthanized and the plugs were cut of the mice for the measurement of angiogenic effect using the hemoglobin concentration as the parameter by means of a hemoglobin detection kit (Sigma). Means±S.E. (n=3) were presented. Nude mice (6 weeks of age) were given s.c. injections of 500 μL of Matrigel (Becton Dickinson, Bedford, Mass.) at 4° C. with or without YC-1 and growth factor (150 ng/mL VEGF). After injection, the Matrigel rapidly formed a plug. After 7 days, the skin of the mouse was easily pulled back to expose the Matrigel plug, which remained intact. After quantitative differences were noted and photographed, hemoglobin was measured, as an indication of blood vessel formation, using the Drabkin method (Drabkin reagent kit 525, Sigma, St. Louis, Mo.). The concentration of hemoglobin was calculated from a known amount of hemoglobin assayed in parallel. The in vivo Matrigel plug assay was used in this study to determine quantitative the anti-angiogenic effect of tested compounds.

As for `Cc1ccc(-c2n[nH]c3ccccc23)cc1` [Compound 10, 3-(4-Methylphenyl)-1H-indazole], the melting point is 106 to 107 °C. Also, the “inhibitory effect on VEGF-induced cell proliferation of HUVECs ([3H]thymidine incorporation)” value (from here on “inhibitory effect”) in data set [1] (10 μM, FIG. 6) is recorded as “significant inhibitory effect”. The “inhibitory effect” value in data set [1] (30 μM, FIG. 5) was “significant inhibitory effect”.

The molecule `CCOC(=O)c1ccc(-c2n[nH]c3ccccc23)cc1` [Compound 11, Ethyl 4-(1H-indazol-3-yl)benzoate] gave a melting point of 133 to 135 °C.

In turn, `Cc1ccc(-c2nn(Cc3ccc(Cl)cc3)c3ccccc23)cc1` [Compound 14, 1-(4-Chlorobenzyl)-3-(4-methylphenyl)-1H-indazole] showed a melting point of 79.9 to 82.3 °C.

The molecule `Cc1ccc(-c2c3ccccc3nn2Cc2ccc(Cl)cc2)cc1` [Compound 15, 2-(4-Chlorobenzyl)-3-(4-methylphenyl)-2H-indazole] gave a melting point of 107.4 to 109.5 °C. Also, in data set [2], the “inhibitory activity on tube formation compared with other tested compounds and YD-3” value was “more potent than other tested compounds and YD-3”; the “blockage of VEGF-induced tube formation of HUVECs” value (“blockage” below) is “significant blockage”. In the data set on angiogenesis, the “anti-angiogenic activity (overall)” value is “significant anti-angiogenic activity”. The “activity on VEGF-induced cell proliferation of HUVECs compared with positive control YD-3” value in data set [1] (1 μM) was “better activity than positive control YD-3”. The “inhibitory effect” value in data set [1] (10 μM, FIG. 6) is on record as “significant inhibitory effect”. For the same molecule, the “inhibitory effect” value in data set [1] (30 μM, FIG. 5) is “significant inhibitory effect”. In addition, in data set [3], the “anti-angiogenic activity in Matrigel plug assay (hemoglobin concentration)” value was “significant anti-angiogenic activities” and the “anti-angiogenic potency in Matrigel plug assay compared with positive control YD-3” value is given as “superior potency than the positive control YD-3”.

Take `Cc1ccc(-c2nn(Cc3cccc(Cl)c3)c3ccccc23)cc1` [Compound 16, 1-(3-Chlorobenzyl)-3-(4-methylphenyl)-1H-indazole]: the melting point lay within 66.6 to 68 °C.

Take `Cc1ccc(-c2c3ccccc3nn2Cc2cccc(Cl)c2)cc1` [Compound 17, 2-(3-Chlorobenzyl)-3-(4-methylphenyl)-2H-indazole]: the melting point was 98 to 100 °C. Also, the “blockage” value in data set [2] is “significant blockage”. For the same molecule, in data set [1] (10 μM, FIG. 6), the “inhibitory effect” value was “significant inhibitory effect”. Further, the “inhibitory effect” value in data set [1] (30 μM, FIG. 5) was “significant inhibitory effect”. The “anti-angiogenic activity in Matrigel plug assay (hemoglobin concentration)” value in data set [3] is on record as “significant anti-angiogenic activities”.

On to `Cc1ccc(-c2nn(Cc3ccccc3Cl)c3ccccc23)cc1` [Compound 18, 1-(2-Chlorobenzyl)-3-(4-methylphenyl)-1H-indazole], for which the melting point is 77.6 to 78.8 °C.

For `Cc1ccc(-c2c3ccccc3nn2Cc2ccccc2Cl)cc1` [Compound 19, 2-(2-Chlorobenzyl)-3-(4-methylphenyl)-2H-indazole], the melting point lay in the range of 131.3 to 137.8 °C.

In turn, `Cc1ccc(Cn2nc(-c3ccc(C)cc3)c3ccccc32)cc1` [Compound 20, 1-(4-Methylbenzyl)-3-(4-methylphenyl)-1H-indazole] came in with a melting point of 79.6 to 82.3 °C.

`Cc1ccc(-c2nn(Cc3ccccc3C)c3ccccc23)cc1` [Compound 22, 1-(2-Methylbenzyl)-3-(4-methylphenyl)-1H-indazole]: the melting point lay within 114.1 to 116.5 °C.

`Cc1ccc(-c2c3ccccc3nn2Cc2ccccc2C)cc1` [Compound 23, 2-(2-Methylbenzyl)-3-(4-methylphenyl)-2H-indazole] had a melting point of 125 to 128.8 °C.

`Cc1ccc(-c2c3ccccc3nn2Cc2ccccc2)cc1` [Compound 26, 2-Benzyl-3-(4-methylphenyl)-2H-indazole] came in with a melting point of 110.7 to 111.3 °C. For the same molecule, in data set [2], the “blockage” value was “significant blockage”. The “inhibitory effect” value in data set [1] (10 μM, FIG. 6) is on record as “significant inhibitory effect”. In addition, the “inhibitory effect” value in data set [1] (30 μM, FIG. 5) is given as “significant inhibitory effect”. For the same molecule, the “anti-angiogenic activity in Matrigel plug assay (hemoglobin concentration)” value in data set [3] is “significant anti-angiogenic activities”.

Regarding `CCOC(=O)c1ccc(-c2c3ccccc3nn2Cc2ccccc2)cc1` [Compound 28, Ethyl 4-(2-benzyl-2H-indazol-3-yl)benzoate], the melting point was 112 to 113 °C.

For `COC(=O)c1ccc(-c2nn(Cc3ccc(F)cc3)c3ccccc23)cc1` [Compound 29, Methyl 4-[1-(4-fluorobenzyl)-1H-indazol-3-yl]benzoate], the melting point is 118 to 120 °C.

The molecule `COC(=O)c1ccc(-c2c3ccccc3nn2Cc2ccc(F)cc2)cc1` [Compound 30, Methyl 4-[2-(4-fluorobenzyl)-2H-indazol-3-yl]benzoate] displayed a melting point of 121 to 122 °C.

In the case of `CCOC(=O)c1ccc(-c2nn(Cc3ccccc3F)c3ccccc23)cc1` [Compound 31, Ethyl 4-[1-(2-fluorobenzyl)-1H-indazol-3-yl]benzoate], the melting point was in the range of 102 to 103 °C.

`CCOC(=O)c1ccc(-c2c3ccccc3nn2Cc2ccccc2F)cc1` [Compound 32, Ethyl 4-[2-(2-fluorobenzyl)-2H-indazol-3-yl]benzoate] showed a melting point of 94 to 96 °C.

With `COC(=O)c1ccc(-c2nn(Cc3ccco3)c3ccccc23)cc1` [Compound 33, Methyl 4-[1-(2-furylmethyl)-1H-indazol-3-yl]benzoate], the melting point was in the range of 99 to 101 °C.

In the case of `COC(=O)c1ccc(-c2c3ccccc3nn2Cc2ccco2)cc1` [Compound 34, Methyl 4-[2-(2-furylmethyl)-2H-indazol-3-yl]benzoate], the melting point fell in the range of 140 to 143 °C.

In turn, `O=C(O)c1ccc(-c2c3ccccc3nn2Cc2ccccc2)cc1` [Compound 35, 4-(2-Benzyl-2H-indazol-3-yl)benzoic acid] yielded a melting point of 159 to 163 °C.

As to `O=C(O)c1ccc(-c2c3ccccc3nn2Cc2ccc(F)cc2)cc1` [Compound 36, 4-[2-(4-Fluorobenzyl)-2H-indazol-3-yl]benzoic acid], the melting point lay in the range of 237 to 239 °C.

Consider `O=C(NO)c1ccc(-c2c3ccccc3nn2Cc2ccccc2)cc1` [Compound 38, 4-(2-Benzyl-2H-indazol-3-yl)-N-hydroxybenzamide], for which the melting point lay within 201 to 203 °C.

Regarding `OCc1ccc(-c2c3ccccc3nn2Cc2ccccc2)cc1` [Compound 39, [4-(2-Benzyl-2H-indazol-3-yl)phenyl]methanol], the melting point fell in the range of 148 to 149 °C.

The molecule `OCc1ccc(-c2c3ccccc3nn2Cc2ccco2)cc1` [Compound 40, {4-[2-(2-Furylmethyl)-2H-indazol-3-yl]phenyl]methanol] had a melting point of 129 to 130 °C.
